Test results as given in patent publication US9884043B2, “RORgammaT inhibitors” (Merck Sharp & Dohme Corp., priority 2011, dated 2018).

Each compound was assayed against T1, HIS-tagged RORγ-LBD (Homo sapiens, UniProt P51449) (assay: TR-FRET assay (Protocol B), RORγ-LBD lysate / biotinylated SRC1-2 LXXLL peptide). Conditions: unpurified RORγ-LBD lysate ~10 nM, SRC1-2 peptide 450 nM.
T1 construct: HIS-tagged RORγ-LBD was recombinantly expressed in SF9 cells using a baculovirus expression system; made in house; host or cells: SF9 cells, baculovirus; crude lysate used
T1 sequence (P51449 269-508 limits assumed): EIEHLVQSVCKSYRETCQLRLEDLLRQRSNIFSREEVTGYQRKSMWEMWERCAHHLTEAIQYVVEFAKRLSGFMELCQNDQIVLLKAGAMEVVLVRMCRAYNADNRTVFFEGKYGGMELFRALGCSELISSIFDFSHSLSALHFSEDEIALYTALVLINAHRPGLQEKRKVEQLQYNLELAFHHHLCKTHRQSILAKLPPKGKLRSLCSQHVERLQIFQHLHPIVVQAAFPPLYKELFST
Format: biochemical
Source text: Activation of RORgammaT activity can be measured using e.g. biochemical TR-FRET assay. In such an assay, interaction of cofactor-derived peptides with human RORgammaT-Ligand Binding Domain (LBD) can be measured.
To identify novel antagonists of RORgammaT, an assay was developed which employs the interaction of RORgammaT with its co-activator peptide SRC1_2. […] The assay was run following three slightly different protocols, i.e. Protocol A, Protocol B, and Protocol C, which are described below.
TR-Fret Assay (Protocol B)
HIS-tagged RORγ-LBD was recombinantly expressed in SF9 cells using a baculovirus expression system. The protein was not purified. Cells were lysed and the lysate was used as a source for RORγ-LBD for the assay. A 1:80 dilution of RORγ-LBD lysate in assay buffer (25 mM HEPES pH 7.0, 100 mM NaCl, 0.01% Tween, 0.1% BSA) was prepared and 5 μL was added to each well (RORγ-LBD final concentration ˜10 nM). Control wells received lysate from SF9 cells not expressing RORγ-LBD.
Compounds to be tested were diluted to 100× final test concentration in DMSO and further diluted to 4× final test concentration using assay buffer to provide the test compound mixture. An aliquot (5 μL) of the test compound mixture was added to each well.

SMILES	IC50 [nM]
CN(CCO)C(=O)c1ccc2c(-c3ccc(C(=O)O)cc3F)nn(C(=O)c3c(Cl)cccc3C(F)(F)F)c2c1 [Example 25R, 4-(1-(2-chloro-6-(trifluoromethyl)benzoyl)-6-((2-hydroxyethyl) (methyl)carbamoyl)-1H-indazol-3-yl)-3-fluorobenzoic acid]	< 50
O=C(O)c1ccc(-c2nn(C(=O)c3c(Cl)cccc3C(F)(F)F)c3ccccc23)c(F)c1 [Example 24AR, sodium 4-(1-(2-chloro-6-(trifluoromethyl)-benzoyl)-1H-indazol-3-yl)-3-fluoro benzoate]	< 50
COc1cccc(F)c1C(=O)n1nc(-c2ccc(C(=O)O)cc2F)c2ccccc21 [Example 24AT, 3-fluoro-4-(1-(2-fluoro-6-methoxybenzoyl)-1H-indazol-3-yl)benzoic acid]	< 50
N#Cc1ccc2c(-c3ccc(C(=O)O)cc3)nn(C(=O)c3c(Cl)cccc3C(F)(F)F)c2c1 [Example 29, 4-(1-(2-chloro-6-(trifluoromethyl)benzoyl)-6-cyano-1H-indazol-3-yl)benzoic acid]	50 to 500
COc1cc(-c2nn(C(=O)c3c(Cl)cccc3C(F)(F)F)c3cccnc23)ccc1C(=O)O [Example 24AI, 4-(1-(2-chloro-6-(trifluoromethyl)-benzoyl)-1H-pyrazolo[4,3-b]pyridin-3-yl)-2-methoxybenzoic acid]	50 to 500
O=C(O)c1c(F)cc(-c2nn(C(=O)c3c(Cl)cccc3C(F)(F)F)c3cccc(F)c23)cc1F [Example 24R, 4-(1-(2-chloro-6-(trifluoromethyl)-benzoyl)-4-fluoro-1H-indazol-3-yl)-2,6-difluorobenzoic acid]	< 50
O=C(O)c1ccc(-c2nn(C(=O)c3c(Cl)cccc3C(F)(F)F)c3cc(Br)cc(F)c23)cc1 [Example 24AX, 4-(6-bromo-1-(2-chloro-6-(trifluoromethyl)-benzoyl)-4-fluoro-1H-indazol-3-yl) benzoic acid]	< 50
NCc1ccc2c(-c3ccc(C(=O)O)cc3F)nn(C(=O)c3c(Cl)cccc3C(F)(F)F)c2c1 [Example 27B, 4-(6-(aminomethyl)-1-(2-chloro-6-(trifluoromethyl)benzoyl)-1H-indazol-3-yl)-3-fluorobenzoic acid]	< 50
CN(C)C(=O)c1ccc2c(-c3ccc(C(=O)O)cc3Cl)nn(C(=O)c3c(Cl)cccc3C(F)(F)F)c2c1 [Example 25J, 3-chloro-4-(1-(2-chloro-6-(trifluoromethyl)benzoyl)-6-(dimethyl-carbamoyl)-1H-indazol-3-yl)benzoic acid]	< 50
CC(C)c1cc(-c2nn(C(=O)c3c(Cl)cccc3C(F)(F)F)c3cccc(F)c23)ccc1C(=O)O [Example 24S, 4-(1-(2-chloro-6-(trifluoromethyl)-benzoyl)-4-fluoro-1H-indazol-3-yl)-2-isopropylbenzoic acid]	500 to 10000
CN(CCO)C(=O)c1ccc2c(-c3ccc(C(=O)O)cc3)nn(C(=O)c3c(Cl)cccc3C(F)(F)F)c2c1 [Example 25Q, 4-(1-(2-chloro-6-(trifluoromethyl)benzoyl)-6-((2-hydroxyethyl) (methyl)carbamoyl)-1H-indazol-3-yl)benzoic acid]	< 50
O=C(O)Cc1cccc(-c2nn(C(=O)c3c(Cl)cccc3C(F)(F)F)c3cccc(F)c23)c1 [Example 24F, 2-(3-(1-(2-chloro-6-(trifluoromethyl)-benzoyl)-4-fluoro-1H-indazol-3-yl)phenyl)acetic acid]	500 to 10000
O=C(O)c1cccc(-c2nn(C(=O)c3c(Cl)cccc3C(F)(F)F)c3cccc(F)c23)c1 [Example 24E, 3-(1-(2-chloro-6-(trifluoromethyl)-benzoyl)-4-fluoro-1H-indazol-3-yl)benzoic acid]	500 to 10000
O=C(O)c1cc(F)c(-c2nn(C(=O)c3c(Cl)cccc3C(F)(F)F)c3cccc(F)c23)cc1Cl [Example 24X, 2-chloro-4-(1-(2-chloro-6-(trifluoromethyl)-benzoyl)-4-fluoro-1H-indazol-3-yl)-5-fluorobenzoic acid]	50 to 500
O=C(O)c1ccc(-c2nn(C(=O)c3c(Cl)cccc3C(F)(F)F)c3cc(CO)ccc23)c(F)c1 [Example 24BF, 4-(1-(2-chloro-6-(trifluoromethyl)-benzoyl)-6-(hydroxymethyl)-1H-indazol-3-yl)-3-fluorobenzoic acid]	< 50
NC(=O)c1ccc(-c2nn(C(=O)c3c(Cl)cccc3C(F)(F)F)c3cccc(F)c23)cc1 [Example 24J, 4-(1-(2-chloro-6-(trifluoromethyl)-benzoyl)-4-fluoro-1H-indazol-3-yl)benzamide]	50 to 500

SMILES	IC50 [nM]
NCc1ccc2c(-c3ccc(C(=O)O)cc3)nn(C(=O)c3c(Cl)cccc3C(F)(F)F)c2c1 [Example 27A, 4-(6-(aminomethyl)-1-(2-chloro-6-(trifluoromethyl)benzoyl)-1H-indazol-3-yl)benzoic acid]	< 50
COc1cc(C(=O)O)ccc1-c1nn(C(=O)c2c(Cl)cccc2C(F)(F)F)c2cccc(F)c12 [Example 24Q, 4-(1-(2-chloro-6-(trifluoromethyl)-benzoyl)-4-fluoro-1H-indazol-3-yl)-3-methoxybenzoic acid]	50 to 500
CC(=O)Oc1cc(-c2nn(C(=O)c3c(Cl)cccc3C(F)(F)F)c3cccc(F)c23)ccc1C(=O)O [Example 26B, 2-acetoxy-4-(1-(2-chloro-6-(trifluoromethyl)benzoyl)-4-fluoro-1H-indazol-3-yl)benzoic acid]	< 50
O=C(O)c1ccc(-c2nn(C(=O)c3c(Cl)cccc3C(F)(F)F)c3cccnc23)c(F)c1 [Example 24C, sodium 4-(1-(2-chloro-6-(trifluoromethyl)benzoyl)-1H-pyrazolo[4,3-b]pyridin-3-yl)-3-fluorobenzoate]	< 50
O=C(O)c1ccc(-c2nn(C(=O)c3c(Cl)cccc3C(F)(F)F)c3cc(O)cc(F)c23)c(F)c1 [Example 24BD, 4-(1-(2-chloro-6-(trifluoromethyl)-benzoyl)-4-fluoro-6-hydroxy-1H-indazol-3-yl)-3-fluorobenzoic acid]	500 to 10000
COc1cccc(F)c1C(=O)n1nc(-c2ccc(C(=O)O)cc2F)c2ncccc21 [Example 24AN, 3-fluoro-4-(1-(2-fluoro-6-methoxybenzoyl)-1H-pyrazolo[4,3-b]pyridin-3-yl)benzoic acid]	< 50
O=C(O)c1ccc(-c2nn(C(=O)c3c(Cl)cccc3C(F)(F)F)c3cc(C(=O)NCCO)ccc23)cc1 [Example 25A, sodium 4-(1-(2-chloro-6-(trifluoromethyl)benzoyl)-6-(2-hydroxyethylcarbamoyl)-1H-indazol-3-yl)benzoate]	< 50
O=C(O)c1ccc(-c2nn(C(=O)c3c(Cl)cccc3C(F)(F)F)c3ccccc23)cc1F [Example 24AQ, sodium 4-(1-(2-chloro-6-(trifluoromethyl)-benzoyl)-1H-indazol-3-yl)-2-fluoro benzoate]	< 50
O=C(O)c1ccc(-c2nn(C(=O)c3c(Cl)cccc3C(F)(F)F)c3cc(C(=O)NCCO)ccc23)c(Cl)c1 [Example 25K, 3-chloro-4-(1-(2-chloro-6-(trifluoromethyl)benzoyl)-6-(2-hydroxyethyl-carbamoyl)-1H-indazol-3-yl)benzoic acid]	< 50
O=C(O)c1ccc(-c2nn(C(=O)c3c(Cl)cccc3C(F)(F)F)c3cccc(F)c23)c(O)c1 [Example 26E, 4-(1-(2-chloro-6-(trifluoromethyl)benzoyl)-4-fluoro-1H-indazol-3-yl)-3-hydroxybenzoic acid]	< 50
CN(C)C(=O)c1ccc2c(-c3ccc(C(=O)O)c(F)c3)nn(C(=O)c3c(Cl)cccc3C(F)(F)F)c2c1 [Example 25I, 4-(1-(2-chloro-6-(trifluoromethyl)benzoyl)-6-(dimethyl-carbamoyl)-1H-indazol-3-yl)-2-fluorobenzoic acid]	50 to 500
O=C(O)c1ccc(-c2nn(C(=O)c3c(Cl)cccc3C(F)(F)F)c3cc(C(=O)NCCO)ccc23)c(F)c1 [Example 25H, 4-(1-(2-chloro-6-(trifluoromethyl)benzoyl)-6-(2-hydroxyethyl-carbamoyl)-1H-indazol-3-yl)-3-fluorobenzoic acid]	< 50
COc1cccc(F)c1C(=O)n1nc(-c2ccc(C(=O)O)cc2F)c2c(F)cccc21 [Example 24AA, 3-fluoro-4-(4-fluoro-1-(2-fluoro-6-methoxybenzoyl)-1H-indazol-3-yl)benzoic acid]	< 50
O=C(O)c1ccc(-c2nn(C(=O)c3c(Cl)cccc3C(F)(F)F)c3cc(CO)ccc23)cc1 [Example 24BE, 4-(1-(2-chloro-6-(trifluoromethyl)-benzoyl)-6-(hydroxymethyl)-1H-indazol-3-yl)benzoic acid]	< 50
O=C(O)c1ccc(-c2nn(C(=O)c3c(Cl)cccc3C(F)(F)F)c3cc(O)ccc23)c(F)c1 [Example 24BB, 4-(1-(2-chloro-6-(trifluoromethyl)-benzoyl)-6-hydroxy-1H-indazol-3-yl)-3-fluorobenzoic acid]	< 50
